# Values quoted from earlier work, collected in publication PMC10703426, “New characterization of dihydroergotamine receptor pharmacology in the context of migraine: utilization of a β-arrestin recruitment assay” (Frontiers in Neurology, 2023).
# Test system: 5-HT1D
# Set-up: method as in doi:10.1186/1129-2377-14-S1-P75
# Settings: cited from earlier work
smiles,measurement,value
CNS(=O)(=O)Cc1ccc2[nH]cc(CCN(C)C)c2c1 [sumatriptan succinate],dissociation half-life,5.4 min
